One assay deals with TFEB. The assay is described as follows: TFEB translocation assay (TFEB reporter in U2OS cells, imaging). Particulars: Homo sapiens; U2OS cell line with TFEB reporter, 2 hours incubation, nucleus to cytoplasm ratio, normalized to Torin-1; read-out: TFEB Translocation pEC50 (converted). The class given is cell-based. The method, then: Example B: TFEB Translocation Assay
Reporter TFEB: the reporter is fused to a sequence of monomeric red fluorescent protein.
The reporter TFEB have been stably expressed in U2OS cell line and used as read-out.
Experiments were performed in 384 MTP well format. Cells were seeded in 384-w at a density of 4000 cells/well in 20 μl/well complete growth medium without antibiotics. Twenty-four hours later, cells were treated with compounds and incubated for further 2 hours. Then the cells were imaged and assayed for the response to various compounds using the reporter for TFEB expressed in the cells as readout.
The experiments were performed in a 384-well format according to the following procedure: • 24 h after seeding, cell culture medium was carefully removed and replaced with 20 μl of Opti-MEM (30′ incubation at 37° C. before compound addition) • Then, cells were incubated with compounds diluted in Opti-MEM+0.015% Tween 80 at the desired concentration, with the reference molecule (agonist) Torin-1 at a top concentration of 1 μM (max signal), and with the other reference molecule (agonist) MLSA-5 at top concentration of 20 μM for 2 hours at 37° C. and 5% CO2. The final percentage of DMSO was 0.5% in all the conditions. • Staining of the nuclei was obtained by incubating the cells with 24 μM/well of Hoechst 3342 in standard Tyrode's buffer for 15 min at RT • Then the cells were fixed with PFA 4% for 30 min at RT • After three washes with standard Tyrode's buffer, samples were acquired by recording two fluorescence emission channels (DS-red and blue) at 20× magnification and with at least 3 fields of view per well in an Operetta CLS microscope (PerkinElmer). • Image analysis was performed by using Harmony software (PerkinElmer). The image analysis involved the following steps: flat-field illumination correction, nuclei segmentation, cytoplasm segmentation and calculation of intensity fluorescence in the cytosol and nuclei compartments. Measurements of signal intensity ratio (nucleus to cytoplasm) was used to obtain information on the effects of compounds on the TFEB translocation. • Data from image analysis measurements were finally loaded and analyzed for normalization and fitting procedures in Genedata Screener© software. Data Analysis
Feature: Mean translocation ratio (mean/well)
Data normalization: Stimulator—Neutral control
The GeneData Screener method we have used, normalizes the median of the Stimulator control wells (Torin-1) to 100% and the median of the Neutral control wells (DMSO) to 0% Activity[%]=100*(x−<Min>)/(<“Max”>−<Min>)

The target in another assay is T1, TRPML1 (Homo sapiens, UniProt Q9GZU1).
T1 construct: expressed in transfected cells; host or cells: HEK T-REx cells stably expressing GCaMP6f and TRPML1
In words: Cellular TRPML1 assay (FLIPR, GCaMP6f calcium read-out). The settings on record: HEKT-REx/GCaMP6f/TRPML1 cells, FLIPR TETRA, kinetic response over 300 seconds; read-out: TRPML1 FLIPR pEC50 (converted). Format: cell-based. In a few lines:
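Read-out is GCaMP6f fluorescence over 300 s after compound addition in Ca2+-free Tyrode's buffer, final DMSO 0.5%, on FLIPR Tetra. Cells are HEK T-REx stably co-expressing the indicator and TRPML1, plated 24 h earlier in Optimem + 0.5% FBS and pre-incubated ~10 min at room temperature.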

T1 sequence (Q9GZU1 whole entry): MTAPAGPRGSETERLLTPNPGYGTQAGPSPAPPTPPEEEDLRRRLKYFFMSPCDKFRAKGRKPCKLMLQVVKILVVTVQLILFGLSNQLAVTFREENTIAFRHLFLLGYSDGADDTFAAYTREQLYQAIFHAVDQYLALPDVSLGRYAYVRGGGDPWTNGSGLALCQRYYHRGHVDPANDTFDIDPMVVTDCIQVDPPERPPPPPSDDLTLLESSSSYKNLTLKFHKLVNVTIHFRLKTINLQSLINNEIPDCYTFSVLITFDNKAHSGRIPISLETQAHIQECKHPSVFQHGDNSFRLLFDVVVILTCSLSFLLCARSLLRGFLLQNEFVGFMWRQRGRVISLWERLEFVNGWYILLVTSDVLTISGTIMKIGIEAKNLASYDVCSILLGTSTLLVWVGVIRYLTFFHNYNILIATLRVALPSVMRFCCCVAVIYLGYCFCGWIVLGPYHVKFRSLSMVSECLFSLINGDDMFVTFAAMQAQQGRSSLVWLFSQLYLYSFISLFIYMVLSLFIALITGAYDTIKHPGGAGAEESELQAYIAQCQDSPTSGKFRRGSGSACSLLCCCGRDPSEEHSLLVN

As for `O=C(Nc1ccc(OC2COCC2(F)F)c(F)c1)c1nc(N2CCCC2)oc1CC(F)(F)F` (racemic) [Example 71, N-(4-((4,4-difluorotetrahydrofuran-3-yl)oxy)-3-fluorophenyl)-2-(pyrrolidin-1-yl)-5-(2,2,2-trifluoroethyl)oxazole-4-carboxamide], the EC50 in the assay on TFEB and on TRPML1 was 0.01 to 1 µM in each case.

Consider `O=C(Nc1ccc(OC2CCCC2(F)F)c(F)c1)c1nc(N2CCC(CO)C2)oc1CC(F)(F)F` (centres unmarked) [Example 3, N-(4-((2,2-difluorocyclopentyl)oxy)-3-fluorophenyl)-2-(3-(hydroxymethyl)pyrrolidin-1-yl)-5-(2,2,2-trifluoroethyl)oxazole-4-carboxamide], for which the EC50 in the assay with TFEB and at TRPML1 was 1 to 10 µM each time.

On to `CC1(C)CN(c2nc(C(=O)Nc3ccc(OC4CCCC4(F)F)c(F)c3)c(CC(F)(F)F)o2)CCO1` (centres unmarked) [Example 4, N-{4-[(2,2-difluorocyclopentyl)oxy]-3-fluorophenyl}-2-(2,2-dimethylmorpholin-4-yl)-5-(2,2,2-trifluoroethyl)-1,3-oxazole-4-carboxamide], for which the EC50 with TFEB is 0.01 to 1 µM; at TRPML1, 1 to 10 µM.

Regarding `O=C(Nc1ccc(OC2CCCC2(F)F)c(F)c1)c1nc(N2CCOCC2)oc1CC(F)(F)F` (centres unmarked) [Example 6, N-(4-((2,2-difluorocyclopentyl)oxy)-3-fluorophenyl)-2-morpholino-5-(2,2,2-trifluoroethyl)oxazole-4-carboxamide], the EC50 with TFEB was 0.01 to 1 µM; at TRPML1 it was 1 to 10 µM.

On to `O=C(Nc1ccc(OC2CCCC2(F)F)c(F)c1)c1nc(N2CCC3(CCOC3)C2)oc1CC(F)(F)F` (centres unmarked) [Example 13, N-(4-((2,2-difluorocyclopentyl)oxy)-3-fluorophenyl)-2-(2-oxa-7-azaspiro[4.4]nonan-7-yl)-5-(2,2,2-trifluoroethyl)oxazole-4-carboxamide], for which the EC50 with TFEB and on TRPML1 was 1 to 10 µM each time.

`O=C(Nc1ccc(OC2CCCC2(F)F)c(F)c1)c1nc(N2CCC3(CCC3)C2)oc1CC(F)(F)F` (centres unmarked) [Example 15, N-(4-((2,2-difluorocyclopentyl)oxy)-3-fluorophenyl)-2-(6-azaspiro[3.4]octan-6-yl)-5-(2,2,2-trifluoroethyl)oxazole-4-carboxamide]: the EC50 in the assay with TFEB and at TRPML1 was 0.01 to 1 µM in each case.

`O=C(Nc1ccc(OC2CCCC2(F)F)c(F)c1)c1nc(N2CC3(C2)CC(F)(F)C3)oc1CC(F)(F)F` (centres unmarked) [Example 17, 2-(6,6-difluoro-2-azaspiro[3.3]heptan-2-yl)-N-(4-((2,2-difluorocyclopentyl)oxy)-3-fluorophenyl)-5-(2,2,2-trifluoroethyl)oxazole-4-carboxamide]: the EC50 in the assay with TFEB and at TRPML1 was 0.01 to 1 µM in each case.

With `O=C(Nc1ccc(OC2CCCC2(F)F)c(F)c1)c1nc(N2CCC3(COC3)C2)oc1CC(F)(F)F` (centres unmarked) [Example 19, N-{4-[(2,2-difluorocyclopentyl)oxy]-3-fluorophenyl}-2-{2-oxa-6-azaspiro[3.4]octan-6-yl}-5-(2,2,2-trifluoroethyl)oxazole-4-carboxamide], the EC50 in the assay with TFEB and on TRPML1 was 0.01 to 1 µM each time.

On to `CC1(C)CN(c2nc(C(=O)Nc3ccc(OC4CCCC4(F)F)c(F)c3)c(CC(F)(F)F)o2)C1` (centres unmarked) [Example 20, N-(4-((2,2-difluorocyclopentyl)oxy)-3-fluorophenyl)-2-(3,3-dimethylazetidin-1-yl)-5-(2,2,2-trifluoroethyl)oxazole-4-carboxamide], for which the EC50 in the assay with TFEB and on TRPML1 was 0.01 to 1 µM each time.

For `O=C(Nc1ccc(OC2CCCC2(F)F)c(F)c1)c1nc(N2CCC3(CC3)C2)oc1CC(F)(F)F` (centres unmarked) [Example 21, N-(4-((2,2-difluorocyclopentyl)oxy)-3-fluorophenyl)-2-(5-azaspiro[2.4]heptan-5-yl)-5-(2,2,2-trifluoroethyl)oxazole-4-carboxamide], the EC50 in the assay with TFEB and on TRPML1 was 0.01 to 1 µM throughout.

For the compound `O=C(Nc1ccc(OC2CCCC2(F)F)c(F)c1)c1nc(N2CCCC2)oc1CC(F)(F)F` (centres unmarked) [Example 22, N-{4-[(2,2-difluorocyclopentyl)oxy]-3-fluorophenyl}-2-(pyrrolidin-1-yl)-5-(2,2,2-trifluoroethyl)oxazole-4-carboxamide], the EC50 with TFEB and at TRPML1 was 0.01 to 1 µM each time.

Take `O=C(Nc1ccc(N2CCCCC2)c(F)c1)c1nc(N2CCC3(C2)CC(F)(F)C3)oc1CC(F)(F)F` [Example 28, 2-(2,2-difluoro-6-azaspiro[3.4]octan-6-yl)-N-(3-fluoro-4-(piperidin-1-yl)phenyl)-5-(2,2,2-trifluoroethyl)oxazole-4-carboxamide]: the EC50 in the assay on TFEB and on TRPML1 was 1 to 10 µM in each case.

On to `O=C(Nc1ccc(N2CCCCC2)c(F)c1)c1nc(N2CC3(C2)CC(F)(F)C3)oc1CC(F)(F)F` [Example 30, 2-{6,6-difluoro-2-azaspiro[3.3]heptan-2-yl}-N-[3-fluoro-4-(piperidin-1-yl)phenyl]-5-(2,2,2-trifluoroethyl)oxazole-4-carboxamide], for which the EC50 in the assay on TFEB and on TRPML1 was 1 to 10 µM each time.

`O=C(Nc1ccc(N2CCCCC2)c(F)c1)c1nc(N2CCC3(CCOC3)C2)oc1CC(F)(F)F` (centres unmarked) [Example 31, N-(3-fluoro-4-(piperidin-1-yl)phenyl)-2-(2-oxa-7-azaspiro[4.4]nonan-7-yl)-5-(2,2,2-trifluoroethyl)oxazole-4-carboxamide]: the EC50 in the assay with TFEB and at TRPML1 was 1 to 10 µM each time.

Take `O=C(Nc1ccc(N2CCCCC2)c(F)c1)c1nc(N2CCCC2)oc1CC(F)(F)F` [Example 32, N-(3-fluoro-4-(piperidin-1-yl)phenyl)-2-(pyrrolidin-1-yl)-5-(2,2,2-trifluoroethyl)oxazole-4-carboxamide]: the EC50 in the assay on TFEB and at TRPML1 was 1 to 10 µM in each case.

Turning to `O=C(Nc1ccc(N2CCCCC2)c(F)c1)c1nc(N2CCC3(COC3)C2)oc1CC(F)(F)F` [Example 33, N-(3-fluoro-4-(piperidin-1-yl)phenyl)-2-(2-oxa-6-azaspiro[3.4]octan-6-yl)-5-(2,2,2-trifluoroethyl)oxazole-4-carboxamide], the EC50 was 1 to 10 µM in the assay on TFEB and 0.01 to 1 µM at TRPML1.

For `O=C(Nc1cc(F)c(OC2CC3C[C@H]3C2)c(F)c1)c1nc(N2CC3CCOC3C2)oc1CC(F)(F)F` (stereo partly drawn) [Example 36, N-(4-{cis-bicyclo[3.1.0]hexan-3-yloxy}-3,5-difluorophenyl)-2-{hexahydro-5H-furo[2,3-c]pyrrol-5-yl}-5-(2,2,2-trifluoroethyl)oxazole-4-carboxamide], the EC50 with TFEB and at TRPML1 was 0.01 to 1 µM each time.

As to `O=C(Nc1cc(F)c(OC2CC3C[C@H]3C2)c(F)c1)c1nc(N2CCC3(CC3)C2)oc1CC(F)(F)F` (some centres unmarked) [Example 38], the EC50 in the assay on TFEB and at TRPML1 was 0.01 to 1 µM in each case.

Regarding `O=C(Nc1cc(F)c(O[C@@H]2C[C@@H]3C[C@@H]3C2)c(F)c1)c1nc(N2CCCC2)oc1CC(F)(F)F` [Example 39, N-(4-(cis-bicyclo[3.1.0]hexan-3-yloxy)-3,5-difluorophenyl)-2-(pyrrolidin-1-yl)-5-(2,2,2-trifluoroethyl)oxazole-4-carboxamide], the EC50 with TFEB and on TRPML1 was 0.01 to 1 µM in each case.

Take `CCc1oc(N2CCCC2)nc1C(=O)Nc1cc(F)c(OC2CC3C[C@H]3C2)c(Cl)c1` (stereo partly drawn) [Example 222, N-(4-(cis-bicyclo[3.1.0]hexan-3-yloxy)-3-chloro-5-fluorophenyl)-5-ethyl-2-(pyrrolidin-1-yl)oxazole-4-carboxamide]: in the assay on TFEB, the EC50 is 0.01 to 1 µM.

With `CCc1oc(N2CC(C)(OC)C2)nc1C(=O)Nc1cc(C)c(OC2CC3C[C@H]3C2)c(F)c1` (stereo partly drawn) [Example 226, N-(4-(cis-bicyclo[3.1.0]hexan-3-yloxy)-3-fluoro-5-methylphenyl)-5-ethyl-2-(3-methoxy-3-methylazetidin-1-yl)oxazole-4-carboxamide], the EC50 in the assay on TFEB was 0.01 to 1 µM.

With `CCCc1oc(N2CCCC2)nc1C(=O)Nc1cc(F)c(OC2CC3C[C@H]3C2)c(F)c1` (stereo partly drawn) [Example 274, N-(4-(cis-bicyclo[3.1.0]hexan-3-yloxy)-3,5-difluorophenyl)-5-propyl-2-(pyrrolidin-1-yl)oxazole-4-carboxamide], the EC50 with TFEB is 0.01 to 1 µM.

For the origin of these results see patent US12098145B2 (Libra Therapeutics, Inc., priority 2022, dated 2024).
